Experimental data: PubChem BioAssay (NCI)
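Test compounds were applied to cells in 96-well plates for 48 hours at 5 doses. TGI: total growth inhibition.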

Assays:
Assay in all cases: NCI-60 cell line screen, 48 h
786-0 renal = system: 786-0 renal
A549 NSCLC = system: A549 NSCLC
ACHN renal = system: ACHN renal
CAKI-1 renal = system: CAKI-1 renal
CCRF-CEM leukemia = system: CCRF-CEM leukemia
COLO 205 colon = system: COLO 205 colon
DLD-1 colon = system: DLD-1 colon
DMS 114 small cell lung = system: DMS 114 small cell lung
DMS 273 small cell lung = system: DMS 273 small cell lung
HCC-2998 colon = system: HCC-2998 colon
HCT-116 colon = system: HCT-116 colon
HCT-15 colon = system: HCT-15 colon
HL-60(TB) leukemia = system: HL-60(TB) leukemia
HOP-18 NSCLC = system: HOP-18 NSCLC
HOP-62 NSCLC = system: HOP-62 NSCLC
HOP-92 NSCLC = system: HOP-92 NSCLC
HT29 colon = system: HT29 colon
IGROV1 ovarian = system: IGROV1 ovarian
K-562 leukemia = system: K-562 leukemia
KM12 colon = system: KM12 colon
LOX IMVI melanoma = system: LOX IMVI melanoma
LXFL 529 NSCLC = system: LXFL 529 NSCLC
M14 melanoma = system: M14 melanoma
M19-MEL melanoma = system: M19-MEL melanoma
MALME-3M melanoma = system: MALME-3M melanoma
MOLT-4 leukemia = system: MOLT-4 leukemia
NCI-H23 lung = system: NCI-H23 lung
NCI-H460 lung = system: NCI-H460 lung
NCI-H522 lung = system: NCI-H522 lung
OVCAR-3 ovarian = system: OVCAR-3 ovarian
OVCAR-4 ovarian = system: OVCAR-4 ovarian
OVCAR-5 ovarian = system: OVCAR-5 ovarian
OVCAR-8 ovarian = system: OVCAR-8 ovarian
RPMI-8226 leukemia = system: RPMI-8226 leukemia
RXF 393 renal = system: RXF 393 renal
SF-268 CNS = system: SF-268 CNS
SF-295 CNS = system: SF-295 CNS
SF-539 CNS = system: SF-539 CNS
SK-MEL-2 melanoma = system: SK-MEL-2 melanoma
SK-MEL-28 melanoma = system: SK-MEL-28 melanoma
SK-MEL-5 melanoma = system: SK-MEL-5 melanoma
SK-OV-3 ovarian = system: SK-OV-3 ovarian
SN12C renal = system: SN12C renal
SNB-19 CNS = system: SNB-19 CNS
SNB-75 CNS = system: SNB-75 CNS
SR leukemia = system: SR leukemia
SW-620 colon = system: SW-620 colon
TK-10 renal = system: TK-10 renal
U251 CNS = system: U251 CNS
UACC-62 melanoma = system: UACC-62 melanoma
UO-31 renal = system: UO-31 renal
A498 renal = system: A498 renal
KM20L2 colon = system: KM20L2 colon
NCI-H226 lung = system: NCI-H226 lung
SNB-78 CNS = system: SNB-78 CNS
UACC-257 melanoma = system: UACC-257 melanoma

Work on `NC1=NS(=O)(=O)Nc2nc(-c3ccc([N+](=O)[O-])cc3)[nH]c21` yielded a TGI (786-0 renal) of over 100 µM, a TGI (A549 NSCLC) of over 100 µM and a TGI (ACHN renal) of over 100 µM. The TGI (CAKI-1 renal) was over 100 µM, the TGI (CCRF-CEM leukemia) was over 100 µM and the TGI (COLO 205 colon) was over 100 µM. The TGI (DLD-1 colon) was over 100 µM, the TGI (DMS 114 small cell lung) was over 100 µM and the TGI (DMS 273 small cell lung) was over 100 µM. For the same molecule, the TGI (HCC-2998 colon) was over 100 µM, the TGI (HCT-116 colon) was over 100 µM and the TGI (HCT-15 colon) was over 100 µM. For the same molecule, the TGI (HL-60(TB) leukemia) was over 100 µM, the TGI (HOP-18 NSCLC) was over 100 µM and the TGI (HOP-62 NSCLC) was over 100 µM. The TGI (HOP-92 NSCLC) was over 100 µM, the TGI (HT29 colon) was over 100 µM and the TGI (IGROV1 ovarian) was over 100 µM. For the same molecule, the TGI (K-562 leukemia) was over 100 µM, the TGI (KM12 colon) was over 100 µM and the TGI (LOX IMVI melanoma) was over 100 µM. It also gave a TGI (LXFL 529 NSCLC) of over 100 µM, a TGI (M14 melanoma) of over 100 µM and a TGI (M19-MEL melanoma) of over 100 µM. It also gave a TGI (MALME-3M melanoma) of over 100 µM, a TGI (MOLT-4 leukemia) of over 100 µM and a TGI (NCI-H23 lung) of over 100 µM. For the same molecule, the TGI (NCI-H460 lung) was over 100 µM, the TGI (NCI-H522 lung) was over 100 µM and the TGI (OVCAR-3 ovarian) was over 100 µM. The TGI (OVCAR-4 ovarian) was over 100 µM, the TGI (OVCAR-5 ovarian) was over 100 µM and the TGI (OVCAR-8 ovarian) was over 100 µM. It also gave a TGI (RPMI-8226 leukemia) of over 100 µM, a TGI (RXF 393 renal) of over 100 µM and a TGI (SF-268 CNS) of over 100 µM. It also gave a TGI (SF-295 CNS) of over 100 µM, a TGI (SF-539 CNS) of over 100 µM and a TGI (SK-MEL-2 melanoma) of over 100 µM. For the same molecule, the TGI (SK-MEL-28 melanoma) was over 100 µM, the TGI (SK-MEL-5 melanoma) was over 100 µM and the TGI (SK-OV-3 ovarian) was over 100 µM. The TGI (SN12C renal) was over 100 µM, the TGI (SNB-19 CNS) was over 100 µM and the TGI (SNB-75 CNS) was over 100 µM. For the same molecule, the TGI (SR leukemia) was over 100 µM, the TGI (SW-620 colon) was over 100 µM and the TGI (TK-10 renal) was over 100 µM. The TGI (U251 CNS) was over 100 µM, the TGI (UACC-62 melanoma) was over 100 µM and the TGI (UO-31 renal) was over 100 µM.

With `O=C1c2ccccc2CCCCCCCCCCC12OCCCO2` the TGI (786-0 renal) was over 100 µM, the TGI (A498 renal) was 97.5 µM and the TGI (A549 NSCLC) was 91.9 µM. It also gave a TGI (ACHN renal) of over 100 µM, a TGI (CAKI-1 renal) of 95.7 µM and a TGI (CCRF-CEM leukemia) of 83.3 µM. For the same molecule, the TGI (COLO 205 colon) was 38.1 µM, the TGI (DLD-1 colon) was over 100 µM and the TGI (DMS 114 small cell lung) was 37.5 µM. The TGI (DMS 273 small cell lung) was over 100 µM, the TGI (HCC-2998 colon) was 68.2 µM and the TGI (HCT-116 colon) was 38.3 µM. For the same molecule, the TGI (HCT-15 colon) was 92.3 µM, the TGI (HL-60(TB) leukemia) was 40.1 µM and the TGI (HOP-18 NSCLC) was over 100 µM. For the same molecule, the TGI (HOP-62 NSCLC) was over 100 µM, the TGI (HT29 colon) was 42.9 µM and the TGI (IGROV1 ovarian) was over 100 µM. For the same molecule, the TGI (K-562 leukemia) was over 100 µM, the TGI (KM12 colon) was over 100 µM and the TGI (KM20L2 colon) was 71.7 µM. The TGI (LOX IMVI melanoma) was 84.8 µM, the TGI (LXFL 529 NSCLC) was over 100 µM and the TGI (M14 melanoma) was over 100 µM. For the same molecule, the TGI (M19-MEL melanoma) was over 100 µM, the TGI (MALME-3M melanoma) was 77.8 µM and the TGI (MOLT-4 leukemia) was 43.8 µM. It also gave a TGI (NCI-H226 lung) of 97.2 µM, a TGI (NCI-H23 lung) of over 100 µM and a TGI (NCI-H460 lung) of over 100 µM. The TGI (NCI-H522 lung) was 67.2 µM, the TGI (OVCAR-3 ovarian) was over 100 µM and the TGI (OVCAR-4 ovarian) was over 100 µM. It also gave a TGI (OVCAR-5 ovarian) of 66.8 µM, a TGI (OVCAR-8 ovarian) of over 100 µM and a TGI (RPMI-8226 leukemia) of 40 µM. The TGI (RXF 393 renal) was 33.7 µM, the TGI (SF-268 CNS) was 96.7 µM and the TGI (SF-295 CNS) was over 100 µM. The TGI (SF-539 CNS) was over 100 µM, the TGI (SK-MEL-2 melanoma) was 68.3 µM and the TGI (SK-MEL-28 melanoma) was over 100 µM. The TGI (SK-MEL-5 melanoma) was 83.8 µM, the TGI (SK-OV-3 ovarian) was over 100 µM and the TGI (SN12C renal) was over 100 µM. The TGI (SNB-19 CNS) was 77.5 µM, the TGI (SNB-75 CNS) was over 100 µM and the TGI (SNB-78 CNS) was over 100 µM. The TGI (TK-10 renal) was over 100 µM, the TGI (U251 CNS) was over 100 µM and the TGI (UACC-257 melanoma) was 72.7 µM. It also gave a TGI (UACC-62 melanoma) of over 100 µM and a TGI (UO-31 renal) of over 100 µM.
